In patent US10407410B2, “Pyridin-3-yl acetic acid derivatives as inhibitors of human immunodeficiency virus replication” (priority 2016, dated 2019) one finds EC50 data, which are given here for 22 compounds.

The structures appear in SMILES notation.

In this assay the test system is NL-RLuc virus (HIV). As to the kind of experiment: Inhibition of HIV replication (NL-RLuc luciferase reporter virus in MT-2 cells). It is filed as cell-based. The note with it: Human immunodeficiency virus 1, MT2, 120 h. The text has this:
Inhibition of HIV Replication
A recombinant NL-RLuc proviral clone was constructed in which a section of the nef gene from NL4-3 was replaced with the Renilla Luciferase gene. This virus is fully infectious and can undergo multiple cycles of replication in cell culture. In addition, the luciferous reporter provides a simple and easy method for quantitating the extent of virus growth and consequently, the antiviral activity of test compounds. The plasmid pNLRLuc contains the proviral NL-Rluc DNA cloned into pUC18 at the PvuII site. The NL-RLuc virus was prepared by transfection of 293T cells with the plasmid pNLRLuc. Transfections were performed using the LipofectAMINE PLUS kit from Invitrogen (Carlsbad, Calif.) according to the manufacturer and the virus generated was titered in MT-2 cells. For susceptibility analyses, the titrated virus was used to infect MT-2 cells in the presence of compound, and after 5 days of incubation, cells were processed and quantitated for virus growth by the amount of expressed luciferase. Assay media was RPMI 1640 supplemented with 10% heat inactivated fetal bovine serum (FBS), 100 units/ml penicillin G/100 units/ml streptomycin, 10 mM HEPES buffer pH 7.55 and 2 mM L-glutamine. The results from at least 2 experiments were used to calculate the EC50 values. Luciferase was quantitated using the Dual Luciferase kit from Promega (Madison, Wis.). Susceptibility of viruses to compounds was determined by incubation in the presence of serial dilutions of the compound. The 50% effective concentration (EC50) was calculated by using the exponential form of the median effect equation where (Fa)=1/[1+(ED50/drug conc.)^m] (Johnson V A, Byington R T. Infectivity Assay. In Techniques in HIV Research. ed. Aldovini A, Walker B D. 71-76. New York: Stockton Press. 1990).
On to `Cc1nc(C)c([C@H](OC(C)(C)C)C(=O)O)c(N2CCC(C)(C)CC2)c1-c1ccc2c(c1)C(=O)C(Cc1ccc(F)cc1)(Cc1ccc(F)cc1)C(=O)N2` [Example 19, (S)-2-(5-(3,3-bis(4-fluorobenzyl)-2,4-dioxo-1,2,3,4-tetrahydroquinolin-6-yl)-4-(4,4-dimethylpiperidin-1-yl)-2,6-dimethylpyridin-3-yl)-2-(tert-butoxy)acetic acid], for which the EC50 was 240 nM.
Under `Cc1nc(C)c([C@H](OC(C)(C)C)C(=O)O)c(N2CCC(C)(C)CC2)c1-c1ccc2c(c1)CNC2=O` [Example 11, (S)-2-(tert-butoxy)-2-(4-(4,4-dimethylpiperidin-1-yl)-2,6-dimethyl-5-(1-oxoisoindolin-5-yl)pyridin-3-yl)acetic acid] stands 1680 nM; under `Cc1cccc(C2CCc3cc(-c4c(CO)nc(C)c([C@H](OC(C)(C)C)C(=O)O)c4N4CCC(C)(C)CC4)ccc3O2)n1` (stereo partly drawn) [Example 45, (2S)-2-tert-Butoxy-2-(4-(4,4-dimethylpiperidin-1-yl)-6-(hydroxymethyl)-2-methyl-5-(2-(6-methylpyridin-2-yl)chroman-6-yl)pyridin-3-yl)acetic acid], 7 nM.
The compound `Cc1ccc(C[C@@H]2CCc3cc(-c4c(C)nc(C)c([C@H](OC(C)(C)C)C(=O)O)c4N4CCC(C)(C)CC4)ccc3O2)c(F)c1` [Example 30, (S)-2-tert-Butoxy-2-(4-(4,4-dimethylpiperidin-1-yl)-5-((S)-2-(2-fluoro-4-methylbenzyl)chroman-6-yl)-2,6-dimethylpyridin-3-yl)acetic acid] returned an EC50 of 5 nM.
`Cc1nc(C)c([C@H](OC(C)(C)C)C(=O)O)c(N2CCC(C)(C)CC2)c1-c1ccc2c(c1)CCC2` [Example 5, (S)-2-(tert-butoxy)-2-(5-(2,3-dihydro-1H-inden-5-yl)-4-(4,4-dimethylpiperidin-1-yl)-2,6-dimethylpyridin-3-yl)acetic acid] yielded an EC50 of 56 nM.
`Cc1nc(C)c([C@H](OC(C)(C)C)C(=O)O)c(N2CCC(C)(C)CC2)c1-c1ccc2c(c1)CCN(Cc1nccs1)C2=O` [Example 15, (S)-2-(tert-butoxy)-2-(4-(4,4-dimethylpiperidin-1-yl)-2,6-dimethyl-5-(1-oxo-2-(thiazol-2-ylmethyl)-1,2,3,4-tetrahydroisoquinolin-6-yl)pyridin-3-yl)acetic acid] yielded an EC50 of 14 nM.
The compound `Cc1nc(C)c([C@H](OC(C)(C)C)C(=O)O)c(N2CCC(C)(C)CC2)c1-c1ccc2c(c1)CCNC2=O` [Example 10, (S)-2-(tert-butoxy)-2-(4-(4,4-dimethylpiperidin-1-yl)-2,6-dimethyl-5-(1-oxo-1,2,3,4-tetrahydroisoquinolin-6-yl)pyridin-3-yl)acetic acid] registered an EC50 of 307 nM.
Under `Cc1nc(C)c([C@H](OC(C)(C)C)C(=O)O)c(N2CCC(C)(C)CC2)c1-c1ccc2c(c1)CCC(c1ccc(F)cc1)O2` (stereo partly drawn) [Example 42, (2S)-2-tert-Butoxy-2-(4-(4,4-dimethylpiperidin-1-yl)-5-(2-(4-fluorophenyl)chroman-6-yl)-2,6-dimethylpyridin-3-yl)acetic acid] stands 7 nM; under `Cc1nc(C)c([C@H](OC(C)(C)C)C(=O)O)c(N2CCC(C)(C)CC2)c1-c1cnc2ccccc2c1` [Example 2, (S)-2-(tert-butoxy)-2-(4-(4,4-dimethylpiperidin-1-yl)-2,6-dimethyl-5-(quinolin-3-yl)pyridin-3-yl)acetic acid], 73 nM.
Under `Cc1nc(C)c([C@H](OC(C)(C)C)C(=O)O)c(N2CCC(C)(C)CC2)c1-c1ccc2c(c1)CC[C@@H](Cc1ccc(F)cc1)O2` [Example 34, (S)-2-tert-Butoxy-2-(4-(4,4-dimethylpiperidin-1-yl)-5-((S)-2-(4-fluorobenzyl)chroman-6-yl)-2,6-dimethylpyridin-3-yl)acetic acid] stands 2 nM; under `Cc1nc(C)c([C@H](OC(C)(C)C)C(=O)O)c(N2CCC(C)(C)CC2)c1-c1ccc2c(c1)c(OCc1ccc(F)cc1)cc(=O)n2C` [Example 20, (S)-2-(tert-butoxy)-2-(4-(4,4-dimethylpiperidin-1-yl)-5-(4-((4-fluorobenzyl)oxy)-1-methyl-2-oxo-1,2-dihydroquinolin-6-yl)-2,6-dimethylpyridin-3-yl)acetic acid], 87 nM.
Under `Cc1nc(C)c([C@H](OC(C)(C)C)C(=O)O)c(N2CCC(C)(C)CC2)c1-c1ccc2c(c1)CC[C@@H](Cc1ccc(F)c(F)c1)O2` [Example 28, (S)-2-tert-Butoxy-2-(5-((S)-2-(3,4-difluorobenzyl)chroman-6-yl)-4-(4,4-dimethylpiperidin-1-yl)-2,6-dimethylpyridin-3-yl)acetic acid] stands 2 nM.
Compound `Cc1ncsc1CN1CCc2cc(-c3c(C)nc(C)c([C@H](OC(C)(C)C)C(=O)O)c3N3CCC(C)(C)CC3)ccc2C1=O` [Example 16, (S)-2-(tert-butoxy)-2-(4-(4,4-dimethylpiperidin-1-yl)-2,6-dimethyl-5-(2-((4-methylthiazol-5-yl)methyl)-1-oxo-1,2,3,4-tetrahydroisoquinolin-6-yl)pyridin-3-yl)acetic acid] yielded an EC50 of 6 nM.
Under `Cc1nc(C)c([C@H](OC(C)(C)C)C(=O)O)c(N2CCC(C)(C)CC2)c1-c1ccc2[nH]c(=O)[nH]c2c1` [Example 8, (S)-2-(tert-butoxy)-2-(4-(4,4-dimethylpiperidin-1-yl)-2,6-dimethyl-5-(2-oxo-2,3-dihydro-1H-benzo[d]imidazol-5-yl)pyridin-3-yl)acetic acid] stands 7060 nM; under `Cc1nc(CO)c(-c2ccc3c(c2)CCC(c2ccc(F)cc2)O3)c(N2CCC(C)(C)CC2)c1[C@H](OC(C)(C)C)C(=O)O` (stereo partly drawn) [Example 43, (2S)-2-tert-Butoxy-2-(4-(4,4-dimethylpiperidin-1-yl)-5-(2-(4-fluorophenyl)chroman-6-yl)-6-(hydroxymethyl)-2-methylpyridin-3-yl)acetic acid], 7 nM; under `Cc1nc(C)c([C@H](OC(C)(C)C)C(=O)O)c(N2CCC(C)(C)CC2)c1-c1ccc2c(c1)CCN(Cc1ccc(F)cc1)C2=O` [Example 14, (S)-2-(tert-butoxy)-2-(4-(4,4-dimethylpiperidin-1-yl)-5-(2-(4-fluorobenzyl)-1-oxo-1,2,3,4-tetrahydroisoquinolin-6-yl)-2,6-dimethylpyridin-3-yl)acetic acid], 6 nM.
The value for `Cc1nc(C)c([C@H](OC(C)(C)C)C(=O)O)c(N2CCC(C)(C)CC2)c1-c1ccc2c(c1)CN(Cc1ccc(F)cc1)C2=O` [Example 13, (S)-2-(tert-butoxy)-2-(4-(4,4-dimethylpiperidin-1-yl)-5-(2-(4-fluorobenzyl)-1-oxoisoindolin-5-yl)-2,6-dimethylpyridin-3-yl)acetic acid] was 12 nM; that for `Cc1nc(CO)c(-c2ccc3c(c2)CC[C@@H](Cc2ccc(F)cc2)O3)c(N2CCC(C)(C)CC2)c1[C@H](OC(C)(C)C)C(=O)O` [Example 36, (S)-2-(tert-Butoxy)-2-(4-(4,4-dimethylpiperidin-1-yl)-5-((S)-2-(4-fluorobenzyl)chroman-6-yl)-6-(hydroxymethyl)-2-methylpyridin-3-yl)acetic acid] was 2 nM; that for `Cc1nc(C)c([C@H](OC(C)(C)C)C(=O)O)c(N2CCC(C)(C)CC2)c1-c1ccc2c(c1)CC[C@H](Cc1ccc(F)c(F)c1)O2` [Example 29, (S)-2-tert-Butoxy-2-(5-((R)-2-(3,4-difluorobenzyl)chroman-6-yl)-4-(4,4-dimethylpiperidin-1-yl)-2,6-dimethylpyridin-3-yl)acetic acid] was 5 nM.
The value for `COc1ccc(S(=O)(=O)N2Cc3ccc(-c4c(C)nc(C)c([C@H](OC(C)(C)C)C(=O)O)c4N4CCC(C)(C)CC4)cc3C2)cc1` [Example 24, (S)-2-(tert-butoxy)-2-(4-(4,4-dimethylpiperidin-1-yl)-5-(2-((4-methoxyphenyl)sulfonyl)isoindolin-5-yl)-2,6-dimethylpyridin-3-yl)acetic acid] was 10 nM; that for `Cc1nc(C)c([C@H](OC(C)(C)C)C(=O)O)c(N2CCC(C)(C)CC2)c1-c1ccc2[nH]c(=O)cc(OCc3ccc(F)cc3)c2c1` [Example 18, (S)-2-(tert-butoxy)-2-(4-(4,4-dimethylpiperidin-1-yl)-5-(4-((4-fluorobenzyl)oxy)-2-oxo-1,2-dihydroquinolin-6-yl)-2,6-dimethylpyridin-3-yl)acetic acid] was 504 nM.
`Cc1ccc(C[C@H]2CCc3cc(-c4c(C)nc(C)c([C@H](OC(C)(C)C)C(=O)O)c4N4CCC(C)(C)CC4)ccc3O2)c(F)c1` [Example 31, (S)-2-tert-Butoxy-2-(4-(4,4-dimethylpiperidin-1-yl)-5-((R)-2-(2-fluoro-4-methylbenzyl)chroman-6-yl)-2,6-dimethylpyridin-3-yl)acetic acid]: the midpoint of the response, the EC50, lay at 3 nM.
